In patent US20080064668A1, “1,3-Diacylated, 26,27-Alkyl/Haloakyl Vitamin D3 Compounds and Methods of Use Thereof” (BioXell S.p.A., priority 2003, published 2008):

Legend:
RT4 = experiment: Proliferation assay using bladder cancer cell lines, RT4; format: cell-based, human; settings: Homo sapiens, RT-4, 72 h, 72 h culture, CyQuant proliferation assay
Description: (§1) Bladder cancer cell lines (T24, RT112, HT1376 and RT4 are human bladder cancer cell lines; NHEK are normal human keratinocytes) were obtained from the European Collection of Cell Cultures (Salisbury, UK). Cells were plated at 3×10^3 per well, in flat bottomed 96-well plates in 100 μl of DMEM medium containing: 5% Fetal Clone I, 50 μg/l gentamicin, 1 mM sodium pyruvate and 1% non-essential amino acids. After culturing for 24 h at 37° C. in 5% CO2, to allow cells to adhere to the plates, VDR ligands (compounds (2), (4), (5) and other vitamin D3 analogs as shown in Table 4) were added at concentrations ranging from 100 μM to 0.3 μM in 100 μl of above-mentioned complete medium. After a further 72 h of culture, cell proliferation was measured using a fluorescence-based proliferation assay kit. (CyQuant Cell Proliferation Assay Kit, Molecular Probes, Eugene, Oreg., USA). The IC50 was calculated from the regression curve of the titration data.

[1] = MTD in CD1 mouse (highest non-hypercalcemic dose); settings: in vivo
RT112 = experiment: Proliferation assay using bladder cancer cell lines, RT112; format: cell-based, human; settings: Homo sapiens, RT-112, 72 h, 72 h culture, CyQuant proliferation assay
Description: as §1

Human BPH cells = experiment: BPH cell proliferation assay (testosterone-induced); format: cell-based; settings: 48 h
Description: Human BPH cells, prepared, maintained and used as previously described in Crescioli C, et al. Journal of Clinical and Endocrinology Metabolism (2000) 85 p 2576-2583, were obtained from prostate tissues derived from 5 patients, who underwent suprapubic adenomectomy for BPH, after informed consent and approval by the Local Ethical Committee.
For all cell proliferation assays, 4×10^4 BPH cells were seeded onto 12-well plates in their growth medium, starved in red- and serum-free medium containing 0.1% BSA for 24 h, and then treated with specific stimuli for 48 h. Cells in phenol red- and serum-free medium containing 0.1% BSA were used as controls. Thereafter, cells were trypsinized, and each experimental point was derived from hemocytometer counting, averaging at least six different fields for each well, as previously reported (see Crescioli C, et al. Journal of Clinical and Endocrinology Metabolism (2000) 85 p 2576-2583).
Growth assays were also carried out using a fixed concentration of androgens (10 nM) with or without vitamin-D analogs (1 nM, 10 nM) or the anti-androgens finasteride (F, 1 nM) and cyproterone acetate (Cyp, 100 nM. Growth assays were also performed using a fixed concentration of T (10 nM) or GFs (10 ng/ml) with or without the vitamin-D analogs. (10 nM).
In the same experiment, each experimental point was repeated in triplicate or quadruplicate and experiments were performed 3 times. Results are expressed as % variation (mean±SEM) over the maximal T or GF-induced stimulation.

ECV = experiment: Proliferation assay using bladder cancer cell lines, ECV; format: cell-based, human; settings: Homo sapiens; 72 h culture, CyQuant proliferation assay
NHEK = experiment: Proliferation assay, NHEK normal human keratinocytes; format: cell-based; settings: Homo sapiens, NHEK; 72 h culture, CyQuant proliferation assay
Description: as §1

HT 1376 = experiment: Proliferation assay using bladder cancer cell lines, HT1376; format: cell-based, human; settings: Homo sapiens, HT-1376; 72 h culture, CyQuant proliferation assay
Description: as §1

IFN-γ production = IFN-γ production in the mixed leukocyte response (MLR); format: cell-based; settings: 120 h; allogeneic PBMC from 2 donors, 5 days, ELISA; read-out: INF-γ IC50
Description: Immature dendritic cells (DC) were prepared as described in Romani, N. et al. (Romani, N. et al. (1996) J. Immunol. Meth. 196:137). IFN-γ production by allogeneic T cell activation in the mixed leukocyte response (MLR) was determined as described in Penna, G., et al., J Immunol., 164: 2405-2411 (2000).
Briefly, peripheral blood mononuclear cells (PBMC) were separated from buffy coats by Ficoll gradient and the same number (3×10^5) of allogeneic PBMC from 2 different donors were co-cultured in 96-well flat-bottom plates. The vitamin D3 compounds were added to each of the cultures.

[2] = Determination of Maximum Tolerated Dose (MTD); settings: female, C57BL/6, mouse, in vivo, po
Description: The maximum tolerated dose of the vitamin D3 compounds of the invention were determined in eight week-old female C57BL/6 mice (3 mice/group) dosed orally (0.1 ml/mouse) with various concentrations of Vitamin D3 analogs daily for four days. Analogs were formulated in miglyol for a final concentration of 0.01, 0.03, 0.1 0.3, 1, 3, 10, 30, 100 and 300 μg/kg when given at 0.1 ml/mouse p.o. daily. Blood for serum calcium assay was drawn by tail bleed on day five, the final day of the study.

| Structure (SMILES) | IC50 (RT4) [µM] | MTD [1] [mg/kg] | IC50 (RT112) [µM] | IC50 (Human BPH cells) [µM] | IC50 (ECV) [µM] | IC50 (NHEK) [µM] | IC50 (HT 1376) [µM] | IC50 (IFN-γ production) [nM] | MTD at 4 days [2] [mg/kg] |
| --- | --- | --- | --- | --- | --- | --- | --- | --- | --- |
| CC(=O)OC1C/C(=C/C=C2\CCC[C@]3(C)C(C(C)CCCC(C)(C)O)=CCC23)C[C@@H](OC(C)=O)C1 (stereo partly shown) [(18), 1,3-Di-O-acetyl-1,25-dihydroxy-16-ene-19-nor-cholecalciferol] | 8 | 0.003 | 1 | 2.24e-05 | 27.9 | 5.8 | 96 |  |  |
| CC(=O)OC1C/C(=C/C=C2\CCC[C@]3(C)C(C(C)CC#CC(C)(C)O)=CCC23)C[C@@H](OC(C)=O)C1 (stereo partly shown) [(20), 1,3-Di-O-Acetyl-1,25-dihydroxy-16-ene-23-yne-19-nor-cholecalciferol] | 9 | 0.03 | 1 |  | 26.7 | 6.7 | > 100 |  |  |
| CCC(O)(C#CCC(C)C1=CCC2/C(=C/C=C3/CC(OC(C)=O)C[C@H](OC(C)=O)C3)CCC[C@]12C)CC (stereo partly shown) [(22), 1,3-Di-O-acetyl-1,25-dihydroxy-16-ene-23-yne-26,27-bishomo-19-nor-cholecalciferol] | 9 |  | 7 |  | 81.7 | 4.7 | > 100 | 0.0253 | 0.1 |
| CC(=O)OC1C/C(=C/C=C2\CCC[C@@]3(C)C2CCC3C2(CC#CC(C)(C)O)CC2)C[C@@H](OC(C)=O)C1 (stereo partly shown) [(24), 1,3-Di-O-acetyl-1,25-dihydroxy-20-cyclopropyl-23-yne-19-nor-cholecalciferol] | 7 |  | 18 |  | 21.5 | 6.8 | > 100 |  |  |
| CC(=O)OC1C/C(=C/C=C2\CCC[C@@]3(C)C2CCC3C2(C/C=C/C(O)(C(F)(F)F)C(F)(F)F)CC2)C[C@@H](OC(C)=O)C1 (stereo partly shown) [(31), 1,3-Di-O-acetyl-1,25-dihydroxy-20-cyclopropyl-23E-ene-26,27-hexafluoro-19-nor-cholecalciferol] | 9 |  | 7 |  | 24.3 | 0.9 | 68 |  | 0.0003 |
| CC(=O)OC1C/C(=C/C=C2\CCC[C@@]3(C)C2CCC3C2(C/C=C\C(O)(C(F)(F)F)C(F)(F)F)CC2)C[C@@H](OC(C)=O)C1 (stereo partly shown) [(33), 1,3-Di-O-acetyl-1,25-dihydroxy-20-cyclopropyl-23Z-ene-26,27-hexafluoro-19-nor-cholecalciferol] | 18 |  | 16 |  | > 100 | 0.9 | > 100 |  |  |
| C=C1/C(=C\C=C2/CCC[C@@]3(C)C2CCC3C2(CCCC(C)(C)O)CC2)C[C@@H](OC(C)=O)C[C@@H]1OC(C)=O (stereo partly shown) [(35), 1,3-Di-O-acetyl-1,25-dihydroxy-20-cyclopropyl-cholecalciferol] | 10 | 0.03 | 9 | 1260 | 52.1 | 4.7 | 67 |  | 0.03 |
| CC(=O)OC1C/C(=C/C=C2\CCC[C@]3(C)C(C4(CCCC(C)(C)O)CC4)=CCC23)C[C@@H](OC(C)=O)C1 (stereo partly drawn) [(37), 1,3-Di-O-acetyl-1α,25-dihydroxy-16-ene-20-cyclopropyl-19-nor-cholecalciferol] | 3 |  | 17.4 |  |  |  |  | 0.068 | 0.01 |
| C=C1/C(=C\C=C2/CCC[C@]3(C)C(C4(CCCC(C)(C)O)CC4)=CCC23)CC(OC(C)=O)C[C@@H]1OC(C)=O (stereo partly drawn) [(39), 1,3-Di-O-acetyl-1α,25-hydroxy-16-ene-20-cyclopropyl-cholecalciferol] | 2.8 |  | 21.5 |  |  |  |  | 0.045 | 0.003 |
